Laboratory results as given in patent US20230104487A1, “11-(4-CHLOROPHENYL)-4-(2,3-DIHYDRO-1H-INDOLE-1-CARBONYL)-3,11-DIMETHYL-5,10,DIOXATRICYCLO[7.4.0.0,2,6,]TRIDECA-1,3,6,8-TETRAEN-13-ONE AND DERIVATIVES AS DESTABILIZER OF CRY1 FOR THE TREATMENT OF CIRCADIAN RHYTHM ASSOCIATED DISEASES AND DISORDERS” (KOC UNIVERSITESI, priority 2019, published 2023).
“Also recorded” adds a separate entry of the source.

Tests used:
C57BL/6J mice = test: Repeated dose toxicity study, 14-day subacute toxicity; type: in vivo; conditions: 60 mg/kg i.p. for 14 days
Method: According to the results of the 5-day maximum tolerated dose determination study, FORMULA I dose was determined as 60 mg/kg for the next 14-day subacute toxicity study. In this study, C57BL/6J mice (n=10) were treated with 60 mg/kg dose of FORMULA I intraperitoneally for 14 days. Control mice (n=5) were only treated with vehicle. Following this, aforementioned procedure (5-day maximum tolerated dose determination study) has been conducted in the same way.

NIH 3T3 Per2-dLuc cells = test: Real-time monitoring of circadian rhythm, NIH 3T3 Per2-dLuc; type: cell-based; conditions: dose dependent
Method: Luminescence values were recorded at 32° C. for each 30 minutes with 15 seconds integration time via Synergy H1 luminometer for a week. For LumiCycle, 400×10^3 U2-OS Bmal1-dLuc or NIH3T3 mPer2-dLuc cells were seeded to 35 mm plates and then procedure given above was followed with a change in the last step. Plates were sealed with vacuum grease and placed to LumiCycle. Each plate was recorded continuously every 10 minutes for 70 seconds at 37° C. via photomultiplier tubes. Period and amplitude data were obtained from LumiCycle Analysis software. To detect the effect of FORMULA I in the absence of CRYs, Cry1^−/−/Cry2^−/− mouse embryonic fibroblasts (CRYDKO MEFs) transiently transfected with pGL3-Per2-Luc (luciferase reporter) were used. 3×10^5 CRYDKO cells were seeded in 35 mm clear plates. Next day, cells were transfected with 4000 ng pGL3-Per2-Luc via Fugene6 transfection reagent according to the manufacturer's instruction. In short, 3:1 ratio of Fugene6 in μl against transfected DNA amount in μg was kept in transfections. 72 h after transfection cells were synchronized with DXM for two hours. Then, medium was changed with lumicycle medium having DMSO or molecule, sealed with vacuum grease, and placed to LumiCycle.

[1] = tested on: Ras transformed p53-null MEF cell line; test: Apoptosis assay (PARP cleavage) with oxaliplatin; type: cell-based, mouse; conditions: 0, 10 or 20 μM oxaliplatin followed by FORMULA I
Method: FIGS. 6A-6B are an illustration of FORMULA I enhanced the effect of oxalipilatin in p53 null MSF cells. Ras pT24 transformed p53 null MSF fibroblast cells were treated with 0, 10 or 20 μM oxaliplatin and incubated for 24 h. Then either DMSO or FORMULA I was added and incubated for 16 h. Cells were lysed and analyzed via protein immunoblot technique. […] Bar graph was drawn normalizing to 10 μM dosage of oxaliplatin (Data represent the mean±SEM, n=4 **: p<0.005, * p<0.05 versus DMSO control by two-way ANOVA).
In previous studies it was reported that […] mutation sensitizes the Ras transformed p53-null cells, but not cells with wild-type p53, to apoptosis induced by UV or UV mimetic agents e.g oxaliplatin. Using fibroblasts isolated from the skin of Cry1^−/−Cry2^−/−p53^−/− and p53^−/− mice, it has been shown that Cry deletion on the p53-null background sensitized the cells to bulky-DNA adduct-induced apoptosis (Lee and Sancar, 2011). With the expectation that FORMULA I would destabilize CRY1 and increase the effectiveness of UV mimetic chemotherapeutic agents, we performed apoptosis assay with Ras transformed p53-null MEF cell lines. In this assay, cells were treated by increasing dose of oxaliplatin for 16 h followed by FORMULA I treatment for 24 h and probed for apoptosis by measuring PARP cleavage. […]

[2] = Brain tissue levels in mice; type: in vivo, mouse; conditions: 100 mg/kg i.p.
Method: C57BL/6J female mice (n=4 per each time point) were treated with 100 mg/kg single dose of FORMULA I intraperitoneally. Blood samples were collected 0, 0.5, 1, 2, 4, 8, 12 and 24 h after administration of FORMULA I by cardiac puncture under isoflurane anesthesia. Plasma was obtained by centrifugation from heparinized tubes and stored at −80° C. until analysis. Brain tissues were quickly removed and stored at −80° C. for further processing. For assessment of the brain exposure of FORMULA I, levels in this tissue were only determined at 2nd (n=2) and 4th (n=2) hours according to maximum concentrations of the molecule in plasma.
Liquid chromatography coupled to tandem mass spectrometry (LC-MS/MS) was used to obtain high mass accuracy data of the analytes in plasma samples for the determination of FORMULA I and Internal standard (IS) Loratadine. […] The optimized conditions of the electrospray ionization (ESI) source were as follows: gas temperature, 300° C.; gas flow, 10 L/min; nebulizer pressure, 25 psi; capillary voltage, 5500 V. ESI in the positive ion mode provides the best results for FORMULA I. For MS-MS detection, the protonated molecules were selected as precursor ions and the most abundant fragment ions obtained at collision energy of 22-20 eV were monitored as the product ions for FORMULA I and IS. […]

Question: With `Cc1c(C(=O)N2CCc3ccccc32)oc2ccc3c(c12)C(=O)CC(C)(c1ccc(Cl)cc1)O3` (stereo not drawn) [FORMULA I, 11-(4-chlorophenyl)-4-(2,3-dihydro-1H-indole-1-carbonyl)-3,11-dimethyl-5,10,dioxatricyclo[7.4.0.0,2,6,]trideca-1,3,6,8-tetraen-13-one] as the compound, how does the “body temperature (mild hypothermia)” value (C57BL/6J mice; during injections) read?
Answer: 33.7-35.4 °C

Question: What about the “highest mean body weight loss” value (C57BL/6J mice; first day following administration) of the same compound?
Answer: 3.7%

Question: What about the “effect on circadian rhythm” value (NIH 3T3 Per2-dLuc cells) of the same compound?
Answer: exhibited similar phenotype

Question: What about the “oxaliplatin-induced apoptosis (cleaved PARP)” value [1] of the same compound?
Answer: sensitized Ras transformed p53-null MEF cell line to oxaliplatin-induced apoptosis; also recorded: increases the cleaved PARP protein level

Question: What about the blood-brain barrier crossing [2] of the same compound?
Answer: crosses the blood-brain barrier

Question: What about the “detection in brain tissue” value ([2]; 2nd and 4th hours) of the same compound?
Answer: detected in the brain tissue
